The values that follow come from ChEMBL document CHEMBL1130877, “The synthesis of new adenosine A3 selective ligands containing bioisosteric isoxazoles” (Bioorg Med Chem Lett, 1998).

Usually Ki stands for the dissociation constant of the complex between target and ligand, obtained from inhibition or displacement. High values mean lower affinity, low ones higher affinity.

Each structure is given as a SMILES string. Bounds are passed on as bounds.

In experiment [1] the target is Adenosine receptor A2a (Rattus norvegicus, UniProt P30543). Nature of the experiment: Binding affinity for adenosine A2a receptor as inhibition of 3[H]-CGS 21680 binding in rat striatum. The class given is tissue-based.
Adenosine receptor A2a, sequence (P30543 whole entry): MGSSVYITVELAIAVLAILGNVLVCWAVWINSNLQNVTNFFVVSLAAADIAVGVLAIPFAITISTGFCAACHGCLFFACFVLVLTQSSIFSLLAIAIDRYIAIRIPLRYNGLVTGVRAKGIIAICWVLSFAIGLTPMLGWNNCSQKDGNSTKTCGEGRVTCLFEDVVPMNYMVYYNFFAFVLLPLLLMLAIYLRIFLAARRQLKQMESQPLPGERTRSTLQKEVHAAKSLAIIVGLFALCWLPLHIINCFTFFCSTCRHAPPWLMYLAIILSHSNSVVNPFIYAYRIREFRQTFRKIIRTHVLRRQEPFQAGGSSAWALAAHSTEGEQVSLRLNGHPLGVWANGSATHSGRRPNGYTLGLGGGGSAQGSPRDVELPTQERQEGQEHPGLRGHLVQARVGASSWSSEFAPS
For experiment [2], the target named is T1, Adenosine receptor A3 (Homo sapiens, UniProt P0DMS8).
T1 sequence (P0DMS8 whole entry): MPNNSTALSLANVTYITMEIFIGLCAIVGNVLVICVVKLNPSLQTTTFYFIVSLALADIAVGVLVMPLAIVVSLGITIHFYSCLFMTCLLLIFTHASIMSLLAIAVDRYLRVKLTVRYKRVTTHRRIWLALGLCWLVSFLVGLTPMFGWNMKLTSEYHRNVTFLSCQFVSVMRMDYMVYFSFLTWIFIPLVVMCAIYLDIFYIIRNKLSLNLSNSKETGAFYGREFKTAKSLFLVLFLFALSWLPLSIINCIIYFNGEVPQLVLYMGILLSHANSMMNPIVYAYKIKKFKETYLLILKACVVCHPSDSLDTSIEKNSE
Nature of the experiment: Binding affinity for adenosine A3 receptor as inhibition of [125I]AB-MECA binding to human receptor expressed in HEK 293 cells. It counts as cell-based, HEK293.

In experiment [3] the target is T2, Adenosine receptor A1 (Rattus norvegicus, UniProt P25099).
T2 sequence (P25099 whole entry): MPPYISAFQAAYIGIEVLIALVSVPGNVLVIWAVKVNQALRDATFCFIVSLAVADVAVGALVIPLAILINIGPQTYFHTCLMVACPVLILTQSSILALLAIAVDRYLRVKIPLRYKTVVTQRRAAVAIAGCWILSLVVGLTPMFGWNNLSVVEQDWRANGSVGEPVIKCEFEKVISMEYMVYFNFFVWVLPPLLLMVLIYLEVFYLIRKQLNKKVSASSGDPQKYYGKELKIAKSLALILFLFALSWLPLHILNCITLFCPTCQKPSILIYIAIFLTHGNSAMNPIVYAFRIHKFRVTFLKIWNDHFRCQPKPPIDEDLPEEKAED
Kind of experiment: Binding affinity for adenosine A1 receptor as inhibition of 3[H]-R-PIA binding in rat brain. It counts as tissue-based.

For `CNC(=O)[C@H]1O[C@@H](n2cnc3c(NCc4ccccc4)ncnc32)[C@H](O)[C@@H]1O`, the inhibition constant (Ki) in experiment [1] turned out to be 2100 nM; in experiment [2], 41 nM; in experiment [3], 2400 nM.
For `O[C@@H]1[C@H](O)[C@@H](c2ccon2)O[C@H]1n1cnc2c(NCc3cccc(I)c3)nc(Cl)nc21` the same measures were 1900 nM, 7.8 nM and 1900 nM.
For `C=C[C@H]1O[C@@H](n2cnc3c(NOC)nc(Cl)nc32)[C@H](O)[C@@H]1O` the same measures were over 10000 nM, 20 nM and 1230 nM.
Regarding `CONc1nc(Cl)nc2c1ncn2[C@@H]1O[C@H](c2ccon2)[C@@H](O)[C@H]1O`, the inhibition constant Ki in experiment [1] is over 10000 nM; in experiment [2], 31 nM; in experiment [3] it was 620 nM.
With `CONc1nc(Cl)nc2c1ncn2[C@@H]1O[C@H](CCl)[C@@H](O)[C@H]1O`, in experiment [2], the inhibition constant Ki turned out to be 26 nM.
